Test results as given in ChEMBL document CHEMBL5512597, “Triazole hybrid compounds: A new frontier in malaria treatment” (Eur J Med Chem, 2023).
In brackets after ≈: the same amount, converted by molar mass.

Key:
Plasmodium falciparum [1] = assay: Antimalarial activity against CQ-sensitive Plasmodium falciparum 3D7 infected in O+ human RBCs assessed as parasite growth inhibition by SYBR Green I staining based assay; assay type: functional, organism-based; settings: 3D7, Erythrocyte
Plasmodium falciparum [2] = assay: Antimalarial activity against CQ-resistant Plasmodium falciparum RKL9 infected in O+ human RBCs assessed as parasite growth inhibition by SYBR Green I staining based assay; assay type: functional, organism-based; settings: RKL9, Erythrocyte
Plasmodium falciparum [3] = assay: Antimalarial activity against CQ-sensitive Plasmodium falciparum 3D7 at trophozoite stage infected in O+ human erythrocytes assessed as parasite growth inhibition in presence of 2.97 uM thiamine by SYBR staining based analysis; assay type: functional, organism-based; settings: 3D7, Erythrocyte
Plasmodium falciparum [4] = assay: Antimalarial activity against CQ-sensitive Plasmodium falciparum 3D7 at trophozoite stage infected in O+ human erythrocytes assessed as parasite growth inhibition in presence of 297 uM thiamine by SYBR staining based analysis; assay type: functional, organism-based; settings: 3D7, Erythrocyte
Plasmodium falciparum [5] = assay: Antiplasmodial activity against CQ-resistant Plasmodium falciparum W2 assessed as parasite growth inhibition incubated for 72 hrs by SYBR Green I staining based analysis; assay type: functional, organism-based; settings: W2, 72 h
Plasmodium falciparum [6] = assay: Antiplasmodial activity against CQ-susceptible Plasmodium falciparum 3D7 assessed as parasite growth inhibition incubated for 72 hrs by SYBR Green I staining based analysis; assay type: functional, organism-based; settings: 3D7, 72 h
[7] = Cytotoxicity against African green monkey Vero cells assessed as cell growth inhibition incubated for 24 hrs by fluorescence based assay; assay type: toxicity; settings: African green monkey (Chlorocebus sabaeus)
Plasmodium falciparum [8] = assay: Antimalarial activity against Plasmodium falciparum 3D7 assessed as parasite growth inhibition; assay type: functional, organism-based
Plasmodium falciparum [9] = assay: Antimalarial activity against Plasmodium falciparum K1 assessed as parasite growth inhibition; assay type: functional, organism-based
Plasmodium falciparum [10] = assay: Antimalarial activity against Plasmodium falciparum D6; assay type: functional, organism-based
Plasmodium falciparum [11] = assay: Antimalarial activity against Plasmodium falciparum W2; assay type: functional, organism-based
Plasmodium falciparum [12] = assay: Antiplasmodial activity against CQ-resistant Plasmodium falciparum K1 at asexual erythrocyte stage by LDH assay; assay type: functional, organism-based
Plasmodium falciparum [13] = assay: Antiplasmodial activity against CQ-sensitive Plasmodium falciparum NF54 at asexual erythrocyte stage by LDH assay; assay type: functional, organism-based
Plasmodium falciparum [14] = assay: Antimalarial activity against Plasmodium falciparum 3D7 by SYBR green dye based analysis; assay type: functional, organism-based
Plasmodium knowlesi = assay: Antimalarial activity against Plasmodium knowlesi A1H1; assay type: functional, organism-based
Plasmodium falciparum [15] = assay: Antimalarial activity against Plasmodium falciparum 3D7 infected in A+ human erythrocytes assessed as reduction in parasite growth incubated for 72 hrs by SYBR Green I staining based analysis; assay type: functional, organism-based; settings: 3D7, Erythrocyte
Plasmodium falciparum [16] = assay: Antimalarial activity against Plasmodium falciparum Dd2 infected in A+ human erythrocytes assessed as reduction in parasite growth incubated for 72 hrs by SYBR Green I staining based analysis; assay type: functional, organism-based; settings: Dd2, Erythrocyte
[17] = Cytotoxicity against human erythrocytes; assay type: toxicity, cell-based, Erythrocyte
[18] = Cytotoxicity against African green monkey Vero cells after 72 hrs by MTT assay; assay type: toxicity, cell-based; settings: chlorocebus sabaeus
[19] = Cytotoxicity against human Huh-7 cells by MTT assay; assay type: toxicity, cell-based
Plasmodium falciparum [20] = assay: Antiplasmodial activity against Plasmodium falciparum 3D7 at asexual erythrocytic stage infected in human erythrocytes assessed as parasite growth inhibition incubated for 42 hrs by [3H]-hypoxanthine incorporation assay; assay type: functional, organism-based; settings: 3D7, Erythrocyte
Plasmodium falciparum [21] = assay: Antimalarial activity against Plasmodium falciparum NF54 infected in human erythrocytes assessed as inhibition of parasitemia by giemsa staining based analysis; assay type: functional, organism-based; settings: NF54, Erythrocyte

Work on `COc1ccccc1C(=O)/C=C/c1cn(Cc2cn(-c3ccnc4cc(Cl)ccc34)nn2)c2ccccc12` yielded an IC50 (Plasmodium falciparum [1]) of 2.44 µM and an IC50 (Plasmodium falciparum [2]) of 3.55 µM.

In the case of `Cc1ncc(Cn2cc(CCOC(=O)c3cccc(Cl)c3)nn2)c(N)n1`, the IC50 (Plasmodium falciparum [3]) is reported as 62 µM and the IC50 (Plasmodium falciparum [4]) is reported as 79 µM.

With `OB1OCc2cc(OCc3cn(CCNc4ccnc5cc(Cl)ccc45)nn3)ccc21` the IC50 (Plasmodium falciparum [5]) was 3.78 µM, the IC50 (Plasmodium falciparum [6]) was 4.15 µM and the IC50 at 24 h [7] was > 100 µM.

For `COc1cc(/C=C/C(=O)c2cc3ccccc3oc2=O)ccc1OCc1cn(-c2ccnc3cc(Cl)ccc23)nn1`, the IC50 (Plasmodium falciparum [8]) was > 5 µM and the IC50 (Plasmodium falciparum [9]) was > 5 µM.

In the case of `CCCCCCCn1cc(CO)nn1`, the IC50 (Plasmodium falciparum [10]) is reported as 13.3 µM and the IC50 (Plasmodium falciparum [11]) is reported as 6.63 µM.

Work on `Clc1ccc2c(NCCn3cc(-c4ccnc(-c5ccccn5)c4)nn3)ccnc2c1` yielded an IC50 (Plasmodium falciparum [12]) of 0.275 µM and an IC50 (Plasmodium falciparum [13]) of 0.098 µM.

With `CCOC(=O)c1n[nH]c(-c2ccccn2)n1` the IC50 (Plasmodium falciparum [14]) was 176 µM.

`Cc1ccccc1C(=O)/C=C/c1cn(Cc2cn(-c3ccnc4cc(Cl)ccc34)nn2)c2ccccc12` showed an IC50 (Plasmodium falciparum [1]) of 1.81 µM and an IC50 (Plasmodium falciparum [2]) of 2.72 µM.

With `O=C1CC(c2n[nH]c(=S)n2-c2ccccc2)CN1Cc1ccccc1` (centres undefined) the EC50 (Plasmodium knowlesi) was 28.9 µM.

In the case of `Cc1ncc(Cn2cc(CCOC(=O)c3ccccc3)nn2)c(N)n1`, the IC50 (Plasmodium falciparum [4]) is reported as > 200 µM.

For `CCN(CC)CCCC(C)Nc1ccnc2cc(Cl)ccc12` (centres undefined) [CHLOROQUINE], the EC50 (Plasmodium falciparum [15]) was 0.0127 µM, the EC50 (Plasmodium falciparum [16]) was 0.166 µM and the CC50 [17] was > 100 µg/mL. For the same molecule, the EC50 (Plasmodium knowlesi) was 0.21 µM and the CC50 at 72 h [18] was 112 µM.

Work on `Cc1cc(C)nc(NS(=O)(=O)c2ccc(-n3cc(COc4ccc([N+](=O)[O-])cc4)nn3)cc2)n1` yielded a CC50 [19] of 7.5 µg/mL (≈ 15.6 µM) and an IC50 (Plasmodium falciparum [20]) of 6.2 µg/mL (≈ 12.9 µM).

Molecule `Clc1ccc2c(Nc3nc[nH]n3)cccc2c1` has an IC50 (Plasmodium falciparum [21]) of 42.6 µM.

`CCCCCCCCCn1cc(C(=O)OC)nn1` gave an IC50 (Plasmodium falciparum [10]) of 11.2 µM and an IC50 (Plasmodium falciparum [11]) of 6.67 µM.

Work on `OB1OCc2cc(OCc3cn(CCN4CCN(c5ccnc6cc(Cl)ccc56)CC4)nn3)ccc21` yielded an IC50 (Plasmodium falciparum [5]) of 4.86 µM, an IC50 (Plasmodium falciparum [6]) of 5.31 µM and an IC50 at 24 h [7] of 82.4 µM.

`C[C@@H]1CC[C@H]2[C@@H](C)C(=O)O[C@@H]3O[C@@]4(C)CC[C@@H]1[C@]32OO4` [ARTEMISININ] gave an IC50 (Plasmodium falciparum [11]) of 0.094 µM.

Molecule `COc1cc(/C=C/C(=O)c2ccc(Cl)cc2)ccc1OCc1cn(-c2ccnc3cc(Cl)ccc23)nn1` has an IC50 (Plasmodium falciparum [8]) of 4.12 µM and an IC50 (Plasmodium falciparum [9]) of 3.55 µM.
